Measurements reported in patent US20170348331A1, “METHODS AND COMPOSITIONS FOR […] LEVELS” (Children's Hospital & Research Center at Oakland, priority 2013, published 2017).

What was measured:
[1] = tested on: TPH1; assay: TPH1 expression in peripheral blood cells of a pregnant mother by ELISA; assay type: in vivo, human; conditions: pregnant mother with elevated TPH1, ~1,000 IU per 11.3 kg per day, after 4 weeks
Protocol: TPH1 expression levels are determined from peripheral blood cells by ELISA analysis from a pregnant mother. […] This means that the mother has increased risk of having autistic child. Vitamin D is then be administered ˜1,000 IU per 11.3 kg per day. After 4 weeks of the vitamin D treatment, TPH1 expression levels are assayed in peripheral blood by ELISA analysis again. […] The vitamin D treatment will continue through pregnancy and breastfeeding. This implies the risk of having autistic child is reduced.

[2] = tested on: TPH1; assay: TPH1 expression in placental tissue homogenate of a pregnant person by ELISA; assay type: in vivo, human; conditions: pregnant person with elevated TPH1, about 1,000 IU per 11.3 kg per day, after 4 weeks
Protocol: TPH1 expression levels are determined from placental tissue homogenate obtained from a pregnant person by ELISA analysis. […] This means that the parent has increased risk of having child with autistic spectrum disorder. Vitamin D is then administered to the pregnant person at about 1,000 IU per 11.3 kg per day. After 4 weeks of the vitamin D treatment, TPH1 expression levels are assayed in placental tissue homogenate by ELISA analysis again. […] This implies the risk of having autistic child is reduced.

[3] = tested on: melatonin production; conditions: increasing doses of vitamin D supplementation; cited from earlier work
[4] = tested on: regulatory T cells (Tregs); conditions: vitamin D supplementation; cited from earlier work

## Vitamin D
[1]
  TPH1 expression level in peripheral blood: decreased to normal range
[2]
  TPH1 expression level in placental tissue homogenate: decreased to normal range
[3]
  melatonin production: dose-dependent decrease
[4]
  Tregs in peripheral blood: significantly increase Tregs
